Test results reported in article PMC11882969 (Nature Communications, 2025).
Values joined by “and” are separate entries in the source; they are usually repeats but may differ in a detail not shown here. Equal values may be shown once.

Tests used:
Format in all cases: cell-based
[1] = target: panel of 320 non-olfactory GPCRs (Homo sapiens, UniProt O60883)
[2] = target: panel of 320 non-olfactory GPCRs (Homo sapiens, UniProt O95977)
[3] = target: panel of 320 non-olfactory GPCRs (Homo sapiens, UniProt P08588)
panel of 320 non-olfactory GPCRs (Homo sapiens, UniProt P08588), sequence (P08588 whole entry): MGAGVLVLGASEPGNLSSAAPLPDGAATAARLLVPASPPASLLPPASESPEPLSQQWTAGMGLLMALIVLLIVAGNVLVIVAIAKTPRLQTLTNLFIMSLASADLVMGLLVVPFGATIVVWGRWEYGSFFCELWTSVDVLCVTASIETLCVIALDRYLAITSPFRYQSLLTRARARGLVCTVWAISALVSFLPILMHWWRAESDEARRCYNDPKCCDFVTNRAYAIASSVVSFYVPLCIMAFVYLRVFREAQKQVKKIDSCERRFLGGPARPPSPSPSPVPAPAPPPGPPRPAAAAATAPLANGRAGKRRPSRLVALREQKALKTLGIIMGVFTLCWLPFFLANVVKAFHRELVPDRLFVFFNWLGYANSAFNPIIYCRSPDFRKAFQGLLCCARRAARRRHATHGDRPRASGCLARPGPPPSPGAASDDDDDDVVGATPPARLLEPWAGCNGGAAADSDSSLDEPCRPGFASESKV

[4] = target: panel of 320 non-olfactory GPCRs (Homo sapiens, UniProt P21731)
panel of 320 non-olfactory GPCRs (Homo sapiens, UniProt P21731), sequence (P21731 whole entry): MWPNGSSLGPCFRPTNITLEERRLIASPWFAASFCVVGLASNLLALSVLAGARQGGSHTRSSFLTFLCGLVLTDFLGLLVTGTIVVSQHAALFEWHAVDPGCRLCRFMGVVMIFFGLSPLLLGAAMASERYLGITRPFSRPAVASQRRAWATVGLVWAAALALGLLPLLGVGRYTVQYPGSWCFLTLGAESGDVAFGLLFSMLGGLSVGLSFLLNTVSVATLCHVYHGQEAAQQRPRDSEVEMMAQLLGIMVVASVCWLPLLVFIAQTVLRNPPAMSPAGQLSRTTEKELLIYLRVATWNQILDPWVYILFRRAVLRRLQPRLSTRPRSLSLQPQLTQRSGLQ

[5] = target: panel of 320 non-olfactory GPCRs (Homo sapiens, UniProt P41145)
[6] = target: panel of 320 non-olfactory GPCRs (Homo sapiens, UniProt P41586)
[7] = target: panel of 320 non-olfactory GPCRs (Homo sapiens, UniProt P47900)
[8] = target: panel of 320 non-olfactory GPCRs (Homo sapiens, UniProt P49146)
[9] = target: panel of 320 non-olfactory GPCRs (Homo sapiens, UniProt P49286)
[10] = target: panel of 320 non-olfactory GPCRs (Homo sapiens, UniProt Q14330)
[11] = target: panel of 320 non-olfactory GPCRs (Homo sapiens, UniProt Q14831)
[12] = target: panel of 320 non-olfactory GPCRs (Homo sapiens, UniProt Q15722)
[13] = target: panel of 320 non-olfactory GPCRs (Homo sapiens, UniProt Q16581)
[14] = target: panel of 320 non-olfactory GPCRs (Homo sapiens, UniProt Q7Z602)
panel of 320 non-olfactory GPCRs (Homo sapiens, UniProt Q7Z602), sequence (Q7Z602 whole entry): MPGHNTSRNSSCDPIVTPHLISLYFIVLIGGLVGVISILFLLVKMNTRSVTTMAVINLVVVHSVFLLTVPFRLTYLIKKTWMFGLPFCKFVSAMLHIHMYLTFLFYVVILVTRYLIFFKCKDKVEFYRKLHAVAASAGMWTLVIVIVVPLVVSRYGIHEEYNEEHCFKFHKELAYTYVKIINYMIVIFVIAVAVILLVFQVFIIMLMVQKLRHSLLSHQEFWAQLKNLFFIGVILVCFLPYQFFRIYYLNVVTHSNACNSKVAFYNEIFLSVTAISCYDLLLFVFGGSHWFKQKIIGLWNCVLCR

[15] = target: panel of 320 non-olfactory GPCRs (Homo sapiens, UniProt Q8NFN8)
panel of 320 non-olfactory GPCRs (Homo sapiens, UniProt Q8NFN8), sequence (Q8NFN8 whole entry): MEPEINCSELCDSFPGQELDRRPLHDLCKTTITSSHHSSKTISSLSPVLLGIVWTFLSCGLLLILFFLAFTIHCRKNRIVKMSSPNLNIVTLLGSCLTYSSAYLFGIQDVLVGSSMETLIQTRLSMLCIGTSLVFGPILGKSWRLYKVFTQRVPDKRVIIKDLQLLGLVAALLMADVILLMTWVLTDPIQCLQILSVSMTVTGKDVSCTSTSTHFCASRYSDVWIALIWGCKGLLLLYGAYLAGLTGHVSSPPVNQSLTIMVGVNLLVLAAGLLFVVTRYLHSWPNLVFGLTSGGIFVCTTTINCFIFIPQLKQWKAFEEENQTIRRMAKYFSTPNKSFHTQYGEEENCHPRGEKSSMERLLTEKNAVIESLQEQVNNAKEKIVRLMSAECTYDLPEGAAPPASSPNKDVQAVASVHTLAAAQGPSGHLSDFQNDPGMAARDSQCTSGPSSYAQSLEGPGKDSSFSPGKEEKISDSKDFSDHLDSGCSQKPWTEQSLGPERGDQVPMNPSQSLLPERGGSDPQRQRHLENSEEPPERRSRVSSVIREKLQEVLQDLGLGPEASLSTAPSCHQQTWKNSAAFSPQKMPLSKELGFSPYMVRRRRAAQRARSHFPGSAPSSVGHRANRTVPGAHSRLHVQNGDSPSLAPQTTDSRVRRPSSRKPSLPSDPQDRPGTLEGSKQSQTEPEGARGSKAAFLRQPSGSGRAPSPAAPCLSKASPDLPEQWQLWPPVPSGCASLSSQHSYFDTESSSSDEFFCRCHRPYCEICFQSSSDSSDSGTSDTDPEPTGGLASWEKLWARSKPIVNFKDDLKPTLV

[16] = target: panel of 320 non-olfactory GPCRs (Homo sapiens, UniProt Q9BZJ7)
[17] = target: panel of 320 non-olfactory GPCRs (Homo sapiens, UniProt Q9NS67)
[18] = target: panel of 320 non-olfactory GPCRs (Homo sapiens, UniProt Q9Y271)
[19] = target: panel of 320 non-olfactory GPCRs (Homo sapiens, UniProt Q9Y2T5)
[20] = target: panel of 320 non-olfactory GPCRs (Homo sapiens, UniProt O00421)
[21] = target: panel of 320 non-olfactory GPCRs (Homo sapiens, UniProt O14843)
panel of 320 non-olfactory GPCRs (Homo sapiens, UniProt O14843), sequence (O14843 whole entry): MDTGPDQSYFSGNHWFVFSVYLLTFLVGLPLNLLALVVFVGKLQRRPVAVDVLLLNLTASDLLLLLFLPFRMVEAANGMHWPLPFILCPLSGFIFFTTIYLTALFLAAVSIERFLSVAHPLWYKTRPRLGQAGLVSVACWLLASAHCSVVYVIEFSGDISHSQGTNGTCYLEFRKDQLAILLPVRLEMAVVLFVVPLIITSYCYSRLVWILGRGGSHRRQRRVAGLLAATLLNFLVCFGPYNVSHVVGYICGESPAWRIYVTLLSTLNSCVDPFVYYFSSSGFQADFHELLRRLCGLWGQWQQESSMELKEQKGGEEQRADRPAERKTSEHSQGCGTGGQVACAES

[22] = target: panel of 320 non-olfactory GPCRs (Homo sapiens, UniProt O95665)
[23] = target: panel of 320 non-olfactory GPCRs (Homo sapiens, UniProt P08913)
[24] = target: panel of 320 non-olfactory GPCRs (Homo sapiens, UniProt P18825)
panel of 320 non-olfactory GPCRs (Homo sapiens, UniProt P18825), sequence (P18825 whole entry): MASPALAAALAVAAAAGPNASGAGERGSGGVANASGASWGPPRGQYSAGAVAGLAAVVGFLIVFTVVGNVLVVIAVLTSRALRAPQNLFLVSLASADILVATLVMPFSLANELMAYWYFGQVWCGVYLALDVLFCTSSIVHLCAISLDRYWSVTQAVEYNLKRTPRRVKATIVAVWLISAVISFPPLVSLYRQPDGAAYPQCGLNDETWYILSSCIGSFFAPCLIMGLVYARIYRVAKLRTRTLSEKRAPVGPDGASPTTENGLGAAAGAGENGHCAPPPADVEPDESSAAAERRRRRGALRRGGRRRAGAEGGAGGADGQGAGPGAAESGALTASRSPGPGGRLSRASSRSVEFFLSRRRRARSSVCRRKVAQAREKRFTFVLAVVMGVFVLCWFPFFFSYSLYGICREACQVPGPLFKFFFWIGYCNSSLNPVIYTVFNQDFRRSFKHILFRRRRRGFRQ

[25] = target: panel of 320 non-olfactory GPCRs (Homo sapiens, UniProt P32238)
[26] = target: panel of 320 non-olfactory GPCRs (Homo sapiens, UniProt P41180)
[27] = target: panel of 320 non-olfactory GPCRs (Homo sapiens, UniProt P41587)
[28] = target: panel of 320 non-olfactory GPCRs (Homo sapiens, UniProt P49682)
[29] = target: panel of 320 non-olfactory GPCRs (Homo sapiens, UniProt P51681)
panel of 320 non-olfactory GPCRs (Homo sapiens, UniProt P51681), sequence (P51681 whole entry): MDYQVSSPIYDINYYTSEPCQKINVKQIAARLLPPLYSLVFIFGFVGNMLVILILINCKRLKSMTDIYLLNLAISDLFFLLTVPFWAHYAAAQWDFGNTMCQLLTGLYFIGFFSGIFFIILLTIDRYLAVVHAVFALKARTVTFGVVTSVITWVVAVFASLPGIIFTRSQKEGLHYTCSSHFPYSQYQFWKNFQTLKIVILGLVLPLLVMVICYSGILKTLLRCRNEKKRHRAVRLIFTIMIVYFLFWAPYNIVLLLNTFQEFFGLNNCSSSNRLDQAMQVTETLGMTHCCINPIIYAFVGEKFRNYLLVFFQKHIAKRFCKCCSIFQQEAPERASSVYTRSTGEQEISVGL

[30] = target: panel of 320 non-olfactory GPCRs (Homo sapiens, UniProt Q7Z601)
[31] = target: panel of 320 non-olfactory GPCRs (Homo sapiens, UniProt Q8IZ08)
[32] = target: panel of 320 non-olfactory GPCRs (Homo sapiens, UniProt Q8IZF5)
[33] = target: panel of 320 non-olfactory GPCRs (Homo sapiens, UniProt Q8TDV0)
[34] = target: panel of 320 non-olfactory GPCRs (Homo sapiens, UniProt Q96LB2)
[35] = target: panel of 320 non-olfactory GPCRs (Homo sapiens, UniProt Q96P69)
panel of 320 non-olfactory GPCRs (Homo sapiens, UniProt Q96P69), sequence (Q96P69 whole entry): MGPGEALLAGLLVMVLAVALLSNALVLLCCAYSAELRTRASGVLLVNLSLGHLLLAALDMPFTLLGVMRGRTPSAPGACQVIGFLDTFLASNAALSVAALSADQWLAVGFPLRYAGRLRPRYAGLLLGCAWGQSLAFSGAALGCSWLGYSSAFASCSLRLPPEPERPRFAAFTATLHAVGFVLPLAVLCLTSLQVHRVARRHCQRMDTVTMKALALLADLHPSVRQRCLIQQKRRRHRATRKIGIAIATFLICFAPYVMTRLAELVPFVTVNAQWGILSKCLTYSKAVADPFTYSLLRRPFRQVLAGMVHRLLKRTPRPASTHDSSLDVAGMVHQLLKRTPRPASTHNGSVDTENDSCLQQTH

[36] = target: panel of 320 non-olfactory GPCRs (Homo sapiens, UniProt Q9H3N8)
panel of 320 non-olfactory GPCRs (Homo sapiens, UniProt Q9H3N8), sequence (Q9H3N8 whole entry): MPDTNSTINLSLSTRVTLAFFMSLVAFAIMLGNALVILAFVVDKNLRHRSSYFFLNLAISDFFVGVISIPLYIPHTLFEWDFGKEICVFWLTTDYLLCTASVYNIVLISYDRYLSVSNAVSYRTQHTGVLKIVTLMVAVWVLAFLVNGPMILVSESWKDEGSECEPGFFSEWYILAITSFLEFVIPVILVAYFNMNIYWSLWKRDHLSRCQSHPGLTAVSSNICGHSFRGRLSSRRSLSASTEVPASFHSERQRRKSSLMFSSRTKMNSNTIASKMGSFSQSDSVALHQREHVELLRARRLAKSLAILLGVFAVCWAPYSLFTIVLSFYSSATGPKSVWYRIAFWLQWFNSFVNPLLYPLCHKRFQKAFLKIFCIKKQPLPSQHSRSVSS

[37] = target: panel of 320 non-olfactory GPCRs (Homo sapiens, UniProt Q9UPC5)
panel of 320 non-olfactory GPCRs (Homo sapiens, UniProt Q9UPC5), sequence (Q9UPC5 whole entry): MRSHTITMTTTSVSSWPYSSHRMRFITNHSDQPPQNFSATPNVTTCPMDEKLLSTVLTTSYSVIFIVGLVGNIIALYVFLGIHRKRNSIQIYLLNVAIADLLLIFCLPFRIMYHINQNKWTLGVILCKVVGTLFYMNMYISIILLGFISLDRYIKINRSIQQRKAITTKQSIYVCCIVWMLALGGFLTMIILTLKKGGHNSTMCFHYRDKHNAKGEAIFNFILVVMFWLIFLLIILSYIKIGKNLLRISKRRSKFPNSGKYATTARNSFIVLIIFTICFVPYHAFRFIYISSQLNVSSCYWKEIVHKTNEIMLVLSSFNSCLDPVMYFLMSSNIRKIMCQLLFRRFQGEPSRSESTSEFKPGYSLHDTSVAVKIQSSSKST

panel of 320 non-olfactory GPCRs (Homo sapiens, UniProt O60883), sequence (O60883 26-481): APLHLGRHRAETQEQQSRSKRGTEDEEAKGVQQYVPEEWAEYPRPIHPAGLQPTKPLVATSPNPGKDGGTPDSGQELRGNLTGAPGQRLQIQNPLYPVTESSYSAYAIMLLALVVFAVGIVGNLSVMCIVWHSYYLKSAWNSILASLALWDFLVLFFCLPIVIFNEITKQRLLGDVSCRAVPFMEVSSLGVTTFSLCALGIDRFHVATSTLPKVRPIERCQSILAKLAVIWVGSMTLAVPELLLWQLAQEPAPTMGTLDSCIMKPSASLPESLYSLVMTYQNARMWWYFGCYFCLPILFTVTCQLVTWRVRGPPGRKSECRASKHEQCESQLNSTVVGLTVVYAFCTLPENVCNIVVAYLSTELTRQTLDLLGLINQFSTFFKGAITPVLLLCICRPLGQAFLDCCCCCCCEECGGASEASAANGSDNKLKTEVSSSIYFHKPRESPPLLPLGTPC

With Cc1cc(C(=O)NC(C)(c2ccco2)c2ccco2)nn1-c1cccc(C(F)(F)F)c1 [‘4936] the “Fold of Basal RLU” value [1] was 0.5 fold and 0.9 fold and 0.6 fold, the “Fold of Basal RLU” value [2] was 0.7 fold and 0.5 fold and the “Fold of Basal RLU” value [3] was 0.7 and 0.8 and 0.6. For the same compound, the “Fold of Basal RLU” value [4] was 0.7 and 1.2 and 0.8, the “Fold of Basal RLU” value [5] was 1.5 fold and 0.8 fold and 1 fold and the “Fold of Basal RLU” value [6] was 0.5 fold and 0.9 fold and 0.7 fold and 0.8 fold. The “Fold of Basal RLU” value [7] was 1.1 fold and 0.9 fold and 0.7 fold and 1 fold, the “Fold of Basal RLU” value [8] was 1.1 fold and 0.9 fold and 0.7 fold and the “Fold of Basal RLU” value [9] was 1.4 fold and 2 fold and 2.5 fold and 2.8 fold. The “Fold of Basal RLU” value [10] was 1.1 fold and 1.3 fold and 1.6 fold and 1.7 fold, the “Fold of Basal RLU” value [11] was 0.5 and 1 and 0.9 and 0.6 and the “Fold of Basal RLU” value [12] was 0.6 and 1 and 0.9 and 0.8. The “Fold of Basal RLU” value [13] was 0.5 and 0.6 and 0.3, the “Fold of Basal RLU” value [14] was 1.2 fold and 1.4 fold and 0.8 fold and the “Fold of Basal RLU” value [15] was 0.8 and 1.2 and 0.6. The “Fold of Basal RLU” value [16] was 0.7 and 1.4 and 0.9, the “Fold of Basal RLU” value [17] was 0.5 and 0.7 and 0.6 and the “Fold of Basal RLU” value [18] was 1.1 and 0.9. The “Fold of Basal RLU” value [19] was 1.8 fold and 1.9 fold and 2.1 fold.
COC(=O)[C@@](C)(NC(=O)c1cc(C)n(-c2cccc(C(F)(F)F)c2)n1)c1cccs1 [‘1350] was tested, and the “Fold of Basal RLU” value [20] was 1.8 and 1.2 and 1 and 0.9, the “Fold of Basal RLU” value [21] was 0.6 and 0.8 and 1.1 and the “Fold of Basal RLU” value [22] was 1.2 and 1 and 0.7 and 0.8. The “Fold of Basal RLU” value [23] was 1.8 fold and 1.4 fold and 1.6 fold and 1.2 fold, the “Fold of Basal RLU” value [24] was 0.7 and 1.2 and 0.6 and the “Fold of Basal RLU” value [25] was 1.4 and 0.9 and 1.1 and 1.7. The “Fold of Basal RLU” value [26] was 0.4 and 0.7 and 0.8, the “Fold of Basal RLU” value [27] was 0.9 and 1 and 0.7 and 1.3 and the “Fold of Basal RLU” value [28] was 0.5 and 0.4 and 0.6. The “Fold of Basal RLU” value [29] was 0.9 and 0.6 and 1.1 and 0.7, the “Fold of Basal RLU” value [30] was 1.2 and 0.9 and 1 and the “Fold of Basal RLU” value [31] was 1.2 and 0.9 and 1.6. For the same compound, the “Fold of Basal RLU” value [32] was 1.3 and 0.8 and 1.2, the “Fold of Basal RLU” value [33] was 0.6 and 0.8 and 1.1 and the “Fold of Basal RLU” value [34] was 0.9 and 0.7 and 0.8 and 1.1. The “Fold of Basal RLU” value [35] was 0.8 and 1 and 1.1 and 1.4, the “Fold of Basal RLU” value [36] was 1.6 fold and 1.4 fold and 2.4 fold and 1.5 fold and the “Fold of Basal RLU” value [37] was 0.7 fold and 1 fold and 1.1 fold and 1.4 fold.
